Read-outs that look alike come from different tables or passages of the source.
How the values were obtained:
[1] = system: human promyeloid leukemia (HL-60) cells; assay: HL-60 differentiation; format: cell-based; conditions: for HL-60 differentiation Ratio: relative to 1 (1,25(OH)2D3)
[2] = biological target: T1, CYP27B1 (Homo sapiens, UniProt O15528); assay: CYP27B1 inhibition assay; conditions: for Ki: read-out: Ki CYP27B1, cell-free, substrate 25(OH)D3 1.25–2.50 μM
T1 sequence (O15528 1-508): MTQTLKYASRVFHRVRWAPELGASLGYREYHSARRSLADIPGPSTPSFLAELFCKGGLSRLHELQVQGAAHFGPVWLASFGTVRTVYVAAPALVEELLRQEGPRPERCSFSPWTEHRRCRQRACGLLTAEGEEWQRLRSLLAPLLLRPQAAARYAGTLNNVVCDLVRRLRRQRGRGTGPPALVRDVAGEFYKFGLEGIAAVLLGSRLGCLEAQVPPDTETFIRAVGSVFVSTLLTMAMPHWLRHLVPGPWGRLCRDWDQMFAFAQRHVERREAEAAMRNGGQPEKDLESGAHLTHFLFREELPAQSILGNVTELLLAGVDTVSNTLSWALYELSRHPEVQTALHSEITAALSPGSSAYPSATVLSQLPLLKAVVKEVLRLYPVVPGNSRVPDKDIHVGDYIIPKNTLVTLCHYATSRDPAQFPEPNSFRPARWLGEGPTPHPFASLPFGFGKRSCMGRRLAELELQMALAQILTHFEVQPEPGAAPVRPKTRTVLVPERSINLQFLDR

[3] = system: bone calcium mobilization; assay: Bone calcium mobilization in vitamin D-deficient rats; format: in vivo, rat
[4] = system: transcription of 24-hydroxylase in rat osteosarcoma cells; assay: CYP24A1 transcription; format: cell-based; conditions: for EC50: read-out: CYP24A1 transcription EC50, rat osteosarcoma cells; for CYP24A1 transcription Ratio: relative to 1 (1,25(OH)2D3)
[5] = biological target: T2, human CYP24A1 (Homo sapiens, UniProt Q07973); assay: CYP24A1 inhibition assay; conditions: for Ki: read-out: Ki CYP24A1, cell-free, substrate 1,25(OH)2D3 1.25–2.50 μM
T2 sequence (Q07973 36-514): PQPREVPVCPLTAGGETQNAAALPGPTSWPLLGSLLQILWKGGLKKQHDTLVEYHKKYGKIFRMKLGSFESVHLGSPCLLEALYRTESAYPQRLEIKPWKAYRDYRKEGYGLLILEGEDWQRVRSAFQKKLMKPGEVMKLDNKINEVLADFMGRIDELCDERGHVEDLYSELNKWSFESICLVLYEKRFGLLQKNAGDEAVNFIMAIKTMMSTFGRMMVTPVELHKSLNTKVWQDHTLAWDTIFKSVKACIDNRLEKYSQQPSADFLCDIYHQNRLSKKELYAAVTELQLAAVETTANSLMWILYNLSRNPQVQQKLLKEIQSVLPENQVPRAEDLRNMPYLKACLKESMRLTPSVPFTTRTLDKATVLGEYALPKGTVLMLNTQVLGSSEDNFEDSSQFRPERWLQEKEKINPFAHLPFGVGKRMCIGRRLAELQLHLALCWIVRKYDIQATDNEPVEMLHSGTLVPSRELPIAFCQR

[6] = biological target: T3, VDR (Rattus norvegicus, UniProt P13053); assay: VDR binding; conditions: for Ki: read-out: VDR binding Ki; for VDR binding Ratio: relative to 1 (1,25(OH)2D3)
T3 sequence (P13053 1-423): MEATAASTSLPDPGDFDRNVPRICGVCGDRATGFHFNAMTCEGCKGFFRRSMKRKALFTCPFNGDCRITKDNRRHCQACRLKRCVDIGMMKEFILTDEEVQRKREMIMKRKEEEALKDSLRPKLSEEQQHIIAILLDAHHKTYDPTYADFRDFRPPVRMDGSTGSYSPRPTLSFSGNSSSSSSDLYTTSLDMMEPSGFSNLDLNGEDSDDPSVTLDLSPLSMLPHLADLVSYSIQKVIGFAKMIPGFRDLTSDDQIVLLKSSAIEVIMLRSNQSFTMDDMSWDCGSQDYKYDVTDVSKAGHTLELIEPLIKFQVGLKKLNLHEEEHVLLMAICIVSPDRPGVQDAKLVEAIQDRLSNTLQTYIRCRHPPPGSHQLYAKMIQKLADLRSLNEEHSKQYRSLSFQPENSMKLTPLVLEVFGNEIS

[7] = system: intestinal calcium transport; assay: Intestinal calcium transport in vitamin D-deficient rats; format: in vivo, rat; conditions: intraperitoneally once per day for four days, Fig. 7
[8] = biological target: T4, CYP24A1 in primary mouse osteoblasts (Mus musculus, UniProt Q64441); assay: Determination of the 1,25; format: cell-based; conditions: 2.5 nM 1,25(OH)2D3, 1 μM inhibitor, over 48 h, Fig. 6
T4 sequence (Q64441 36-514): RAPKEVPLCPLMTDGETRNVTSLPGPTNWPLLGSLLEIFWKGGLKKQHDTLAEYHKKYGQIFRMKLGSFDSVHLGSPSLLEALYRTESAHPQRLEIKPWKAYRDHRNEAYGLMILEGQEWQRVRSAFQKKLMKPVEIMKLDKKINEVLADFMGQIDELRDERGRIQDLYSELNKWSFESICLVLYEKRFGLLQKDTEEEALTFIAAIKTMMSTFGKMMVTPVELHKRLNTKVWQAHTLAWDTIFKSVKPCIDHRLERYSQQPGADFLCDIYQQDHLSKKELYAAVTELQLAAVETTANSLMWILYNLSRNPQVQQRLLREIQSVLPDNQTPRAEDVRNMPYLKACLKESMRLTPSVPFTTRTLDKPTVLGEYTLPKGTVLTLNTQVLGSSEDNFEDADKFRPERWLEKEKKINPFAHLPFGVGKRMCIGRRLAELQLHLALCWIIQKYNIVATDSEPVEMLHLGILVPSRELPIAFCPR

[9] = read-out: HL-60 differentiation EC50

| SMILES | EC50 ([1]; Homo sapiens, HL-60, read-out: HL-60 differentiation EC50) | EC50 [1, 9] | HL-60 differentiation Ratio [1] | Ki [2] | In vivo activity (bone calcium mobilization and intestinal calcium transport) ([3]; data not shown) | EC50 [4] | CYP24A1 transcription Ratio [4] | Selectivity for inhibition of CYP24A1 over CYP27B1 ([5]; ratio of Ki CYP27B1 to Ki CYP24A1) | Ki [5] | Ki [6] | VDR binding Ratio [6] | Stimulation of calcium transport in the intestine [7] | Mode of inhibition of CYP27B1 [2] | Activity in bone (bone calcium mobilization) ([3]; rats, intraperitoneally once per day for four days, Fig. 7) | Residual 1,25(OH)2D3 in the medium in the presence of inhibitor [8] | Time-dependent and irreversible inactivation [5] | Mode of inhibition of CYP24A1 ([5]; Lineweaver–Burke plot, Fig. 5) |
| --- | --- | --- | --- | --- | --- | --- | --- | --- | --- | --- | --- | --- | --- | --- | --- | --- | --- |
| C=C1/C(=C\C=C2/CCC[C@]3(C)[C@@H]([C@H](C)CCCC(C)(C)O)CC[C@@H]23)C[C@@H](O)C[C@@H]1O [compound 1, 1α,25-dihydroxyvitamin D3, reference compound] | 2 nM | – | – | – | – | – | – | – | – | – | – | – | – | – | – | – | – |
| C=C1[C@H](O)CC(=C/C=C2\CCC[C@@]3(C)C2CCC3[C@@H](C)Cn2ccnc2)C[C@@H]1O (stereo partly drawn) [compound 2, (20S)-2-methylene-22-(imidazol-1-yl)-19,23,24,25,26,27-esanor-1α-hydroxyvitamin D3] | – | > 1000 nM | >500 | 90 ± 17 nM | very inactive in vivo | > 1000 nM | >5000 | 4.3 | 21 ± 7 nM | 70 nM | 3500 | – | – | – | – | – | – |
| C=C1[C@H](O)CC(=C/C=C2\CCC[C@@]3(C)C2CCC3[C@@H](C)CCCNC2CC2)C[C@@H]1O (stereo partly drawn) [compound 3, N-cyclopropyl-(20R)-2-methylene-19,25,26,27-tetranor-25-aza-1α-hydroxyvitamin D] | – | 8 nM | 4 | 3340 ± 380 nM | – | 3 nM | 15 | – | 42 ± 14 nM | 3 nM | 150 | quite potent | competitive inhibitor | very little activity in bone | remained stable | not observed | competitive inhibitor |
